Data from patent US20260207563A1, “UREA COMPOUNDS AS ACTIVATORS OF POTASSIUM CHANNELS KV7.2/7.3 USEFUL IN THE TREATMENT OF CNS AND PNS DISORDERS” (ANGELINI PHARMA S.P.A., priority 2022, published 2026).
pEC50: −log10 of the molar value.

How the values were obtained:
Format in all cases: cell-based
[1] = biological target: T1, homomeric KV7.4 channel (KCNQ4) (Homo sapiens, UniProt P56696); assay: Automated patch-clamp (Qube) counter-screening assay against KV7.4 channel; settings: CHO-K1 cells expressing KV7.4; class by maximal shift in the Vhalf at 30 μM
T1 construct: host or cells: CHO-K1
From the text: Assessment of In Vitro Potency Against KV7.4 Channels
A counter-screening assay was also developed on the Qube against the homomeric KV7.4 channel (KCNQ4, Uniprot ID P56696). The cell line used was a stably transfected CHO-K1 with constitutive KV7.4 expression supplied by Charles River Laboratories.
CHO-K1 cells stably expressing KV7.4 channels were maintained in the following culture media: • Hams F-12 with GlutaMAX™ (Life Technologies 31765027), • 10% Fetal clone 2 serum (Perbio Science SH30066.03), and • 250 μg/ml Geneticin™ selective antibiotic (G418, Invitrogen 1013-027).
(§1) Cell maintenance, preparation, recording conditions and voltage protocols were all identical to those above.
(§2) Analysis of Data for Assessment of Potency
(§3) 10 concentrations of test compounds were applied to individual wells in quadruplicate to assess potency as a 1 in 3 dilution series from the maximal concentration of 30 μM. The average shift in the voltage for half activation (Vhalf) for each concentration was used to generate concentration-response curves fitted with a 4-parameter logistic model to estimate the EC50 from the point of inflection of the curve and the maximal shift in the Vhalf from the top of the curve.
(§4) The lower the EC50 value, the higher the potency of the analyzed compound. The selectivity criteria is assigned on the basis of the maximal shift in the Vhalf at 30 μM. […] In Table 3, ND means that selectivity was not determined.

[2] = biological target: T2, heteromeric KV7.3/KV7.5 channel (KCNQ3, KCNQ5) (Homo sapiens, UniProt O43525+Q9NR82); assay: Automated patch-clamp counter-screening against KV7.3/KV7.5 channel; settings: HEK293 cells expressing Kv7.3/KV7.5; class by maximal shift in the Vhalf at 30 μM
T2 construct: host or cells: HEK293
Protocol: Assessment of in vitro potency against KV7.3/KV7.5 channels
Counter-screening was also carried out against the heteromeric KV7.3/KV7.5 channel (KCNQ3, Uniprot ID 043525; KCNQ5, Uniprot ID Q9NR82). The cell line used was a stably transfected HEK293 cell line with constitutive Kv7.3 expression and tetracycline inducible KV7.5 expression supplied by Charles River Laboratories.
Cells were maintained in the following culture media: • DMEM/F-12 with GlutaMAX™ (Life Technologies 31331-028), • 10% Tet Systems FCS (Clonetech 631106), • 500 μg/ml Geneticin™ selective antibiotic (G418, Invitrogen 1013-027), • 5 μg/ml Blasticidin S HCl (InvivoGen ant-bl-5), and • 100 μg/ml Zeocin (InvivoGen: ant-zn-5).
as §1, §2, §3, §4

[3] = biological target: T3, heteromeric KV7.2/KV7.3 channels (KCNQ2, KCNQ3) (Homo sapiens, UniProt O43525+O43526); assay: Automated patch-clamp (Sophion Qube 384) potency assay against KV7.2/KV7.3 channels; settings: CHO-K1/Kv7.2/Kv7.3 cells; for pEC50: EC50 from concentration-response of shift in Vhalf, 10 concentrations up to 30 μM, read-out: Kv7.2/7.3 EC50; for Kv7.2/7.3 ΔV1/2: maximal shift in the Vhalf from the top of the curve
T3 construct: expressed in transfected cells; host or cells: CHO-K1
How it was run: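 Activator potency: EC50 from 4-parameter logistic fit of mean Vhalf shift across ten 1-in-3 dilutions starting at 30 μM (n=4), with DMSO (typically 0.3%) control. Currents recorded by leak-subtracted whole-cell clamp of stable CHO-K1 KV7.2/KV7.3 cells, held at −80 mV, stepped −100 to +20 mV then 0 mV tails.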

Structure (SMILES): O=C(NCCC1(C(F)(F)F)CC1)NCc1ccnc(OCC(F)F)c1 [Compound 18, 1-((2-(2,2-Difluoroethoxy)pyridin-4-yl)methyl)-3-(2-(1-(trifluoromethyl)cyclopropyl)ethyl)urea]
- Kv7.4 selectivity criteria [1]: A (Selective compounds showed Kv7.4 and/or Kv7.3/7.5 ΔV1/2 equal to or lower than 15 mV (letter A in table 3))
- Kv7.3/7.5 selectivity criteria [2]: A (Selective compounds showed Kv7.4 and/or Kv7.3/7.5 ΔV1/2 equal to or lower than 15 mV (letter A in table 3))
- pEC50 [3]: 6.19
- Kv7.2/7.3 ΔV1/2 [3]: 24.69 mV

Structure (SMILES): O=C(NCCC1(C(F)(F)F)CC1)NCc1ccnc(OCc2ccccc2F)c1 [Compound 19, 1-((2-((2-Fluorobenzyl)oxy)pyridin-4-yl)methyl)-3-(2-(1-(trifluoromethyl)cyclopropyl)ethyl)urea]
- Kv7.4 selectivity criteria [1]: A (Selective compounds showed Kv7.4 and/or Kv7.3/7.5 ΔV1/2 equal to or lower than 15 mV (letter A in table 3))
- Kv7.3/7.5 selectivity criteria [2]: A (Selective compounds showed Kv7.4 and/or Kv7.3/7.5 ΔV1/2 equal to or lower than 15 mV (letter A in table 3))
- pEC50 [3]: 6.58
- Kv7.2/7.3 ΔV1/2 [3]: 23.76 mV

Structure (SMILES): CC(F)(F)COc1cc(CNC(=O)NCCC2(C(F)(F)F)CC2)ccn1 [Compound 20, 1-((2-(2,2-Difluoropropoxy)pyridin-4-yl)methyl)-3-(2-(1-(trifluoromethyl)cyclopropyl)ethyl)urea]
- Kv7.4 selectivity criteria [1]: A (Selective compounds showed Kv7.4 and/or Kv7.3/7.5 ΔV1/2 equal to or lower than 15 mV (letter A in table 3))
- Kv7.3/7.5 selectivity criteria [2]: A (Selective compounds showed Kv7.4 and/or Kv7.3/7.5 ΔV1/2 equal to or lower than 15 mV (letter A in table 3))
- pEC50 [3]: 6.16
- Kv7.2/7.3 ΔV1/2 [3]: 29.4 mV

Structure (SMILES): O=C(NCCC1(C(F)(F)F)CC1)NC1CCCc2cnc(OCC(F)(F)F)cc21 (centres unmarked) [Compound 21, 1-(3-(2,2,2-Trifluoroethoxy)-5,6,7,8-tetrahydroisoquinolin-5-yl)-3-(2-(1-(trifluoromethyl)cyclopropyl)ethyl)urea]
- Kv7.4 selectivity criteria [1]: B (Non-selective compounds showed Kv7.4 and/or Kv7.3/7.5 ΔV1/2 higher than 15 mV (letter B in table 3))
- Kv7.3/7.5 selectivity criteria [2]: B (Non-selective compounds showed Kv7.4 and/or Kv7.3/7.5 ΔV1/2 higher than 15 mV (letter B in table 3))
- pEC50 [3]: 5.74
- Kv7.2/7.3 ΔV1/2 [3]: 14.76 mV

Structure (SMILES): O=C(NCCC1(C(F)(F)F)CC1)NCc1ccnc(OCC2(F)CC2)c1 [Compound 22, 1-((2-((1-Fluorocyclopropyl)methoxy)pyridin-4-yl)methyl)-3-(2-(1-(trifluoromethyl)cyclopropyl)ethyl)urea]
- Kv7.4 selectivity criteria [1]: A (Selective compounds showed Kv7.4 and/or Kv7.3/7.5 ΔV1/2 equal to or lower than 15 mV (letter A in table 3))
- Kv7.3/7.5 selectivity criteria [2]: A (Selective compounds showed Kv7.4 and/or Kv7.3/7.5 ΔV1/2 equal to or lower than 15 mV (letter A in table 3))
- pEC50 [3]: 5.71
- Kv7.2/7.3 ΔV1/2 [3]: 27.07 mV

Structure (SMILES): O=C(NCCC1(C(F)(F)F)CC1)NCc1ccnc(OCc2ccccn2)c1 [Compound 23, 1-((2-(Pyridin-2-ylmethoxy)pyridin-4-yl)methyl)-3-(2-(1-(trifluoromethyl)cyclopropyl)ethyl)urea]
- Kv7.4 selectivity criteria [1]: A (Selective compounds showed Kv7.4 and/or Kv7.3/7.5 ΔV1/2 equal to or lower than 15 mV (letter A in table 3))
- Kv7.3/7.5 selectivity criteria [2]: A (Selective compounds showed Kv7.4 and/or Kv7.3/7.5 ΔV1/2 equal to or lower than 15 mV (letter A in table 3))
- pEC50 [3]: 5.32
- Kv7.2/7.3 ΔV1/2 [3]: 18.69 mV

Structure (SMILES): O=C(NCCC1(C(F)(F)F)CC1)NCc1ccnc(OCC2(F)COC2)c1 [Compound 24, 1-((2-((3-Fluorooxetan-3-yl)methoxy)pyridin-4-yl)methyl)-3-(2-(1-(trifluoromethyl)cyclopropyl)ethyl)urea]
- Kv7.4 selectivity criteria [1]: A (Selective compounds showed Kv7.4 and/or Kv7.3/7.5 ΔV1/2 equal to or lower than 15 mV (letter A in table 3))
- Kv7.3/7.5 selectivity criteria [2]: A (Selective compounds showed Kv7.4 and/or Kv7.3/7.5 ΔV1/2 equal to or lower than 15 mV (letter A in table 3))
- pEC50 [3]: 4.96
- Kv7.2/7.3 ΔV1/2 [3]: 17.14 mV

Structure (SMILES): O=C(NCCC1(C(F)(F)F)CC1)NCc1ccnc(OCc2ccc(F)cc2F)c1 [Compound 25, 1-((2-((2,4-Difluorobenzyl)oxy)pyridin-4-yl)methyl)-3-(2-(1-(trifluoromethyl)cyclopropyl)ethyl)urea]
- Kv7.4 selectivity criteria [1]: A (Selective compounds showed Kv7.4 and/or Kv7.3/7.5 ΔV1/2 equal to or lower than 15 mV (letter A in table 3))
- Kv7.3/7.5 selectivity criteria [2]: A (Selective compounds showed Kv7.4 and/or Kv7.3/7.5 ΔV1/2 equal to or lower than 15 mV (letter A in table 3))
- pEC50 [3]: 6.40
- Kv7.2/7.3 ΔV1/2 [3]: 25.77 mV

Structure (SMILES): O=C(NCCC1(C(F)(F)F)CC1)NCc1cc(OCC(F)(F)F)nc(N2CCOCC2)c1 [Compound 26, 1-((2-Morpholino-6-(2,2,2-trifluoroethoxy)pyridin-4-yl)methyl)-3-(2-(1-(trifluoromethyl)cyclopropyl)ethyl)urea]
- Kv7.4 selectivity criteria [1]: B (Non-selective compounds showed Kv7.4 and/or Kv7.3/7.5 ΔV1/2 higher than 15 mV (letter B in table 3))
- Kv7.3/7.5 selectivity criteria [2]: A (Selective compounds showed Kv7.4 and/or Kv7.3/7.5 ΔV1/2 equal to or lower than 15 mV (letter A in table 3))
- pEC50 [3]: 5.29
- Kv7.2/7.3 ΔV1/2 [3]: 31.67 mV

Structure (SMILES): O=C(NCCC1(C(F)(F)F)CC1)NCc1cc(OCc2ccc(F)cc2)nc(N2CCOCC2)c1 [Compound 27, 1-((2-((4-Fluorobenzyl)oxy)-6-morpholinopyridin-4-yl)methyl)-3-(2-(1-(trifluoromethyl)cyclopropyl)ethyl)urea]
- Kv7.4 selectivity criteria [1]: B (Non-selective compounds showed Kv7.4 and/or Kv7.3/7.5 ΔV1/2 higher than 15 mV (letter B in table 3))
- Kv7.3/7.5 selectivity criteria [2]: B (Non-selective compounds showed Kv7.4 and/or Kv7.3/7.5 ΔV1/2 higher than 15 mV (letter B in table 3))
- pEC50 [3]: 5.10
- Kv7.2/7.3 ΔV1/2 [3]: 18.22 mV

Structure (SMILES): O=C(NCCC1(C(F)(F)F)CC1)NCc1cccc(OCC(F)(F)F)n1 [Compound 31, 1-((6-(2,2,2-Trifluoroethoxy)pyridin-2-yl)methyl)-3-(2-(1-(trifluoromethyl)cyclopropyl)ethyl)urea]
- Kv7.4 selectivity criteria [1]: A (Selective compounds showed Kv7.4 and/or Kv7.3/7.5 ΔV1/2 equal to or lower than 15 mV (letter A in table 3))
- Kv7.3/7.5 selectivity criteria [2]: B (Non-selective compounds showed Kv7.4 and/or Kv7.3/7.5 ΔV1/2 higher than 15 mV (letter B in table 3))
- pEC50 [3]: 5.51
- Kv7.2/7.3 ΔV1/2 [3]: 25.36 mV

Structure (SMILES): O=C(NCc1ccnc(OCC(F)(F)F)c1)NCC1(C(F)(F)F)CC1 [Compound 35, 1-((2-(2,2,2-Trifluoroethoxy)pyridin-4-yl)methyl)-3-((1-(trifluoromethyl)cyclopropyl)methyl)urea]
- Kv7.4 selectivity criteria [1]: B (Non-selective compounds showed Kv7.4 and/or Kv7.3/7.5 ΔV1/2 higher than 15 mV (letter B in table 3))
- Kv7.3/7.5 selectivity criteria [2]: B (Non-selective compounds showed Kv7.4 and/or Kv7.3/7.5 ΔV1/2 higher than 15 mV (letter B in table 3))
- pEC50 [3]: 6.19
- Kv7.2/7.3 ΔV1/2 [3]: 38.22 mV

Structure (SMILES): O=C(NCc1ccnc(OCC(F)(F)F)c1)NCC1CCCCC1 [Compound 36, 1-(Cyclohexylmethyl)-3-((2-(2,2,2-trifluoroethoxy)pyridin-4-yl)methyl)urea]
- Kv7.4 selectivity criteria [1]: A (Selective compounds showed Kv7.4 and/or Kv7.3/7.5 ΔV1/2 equal to or lower than 15 mV (letter A in table 3))
- Kv7.3/7.5 selectivity criteria [2]: A (Selective compounds showed Kv7.4 and/or Kv7.3/7.5 ΔV1/2 equal to or lower than 15 mV (letter A in table 3))
- pEC50 [3]: 6.36
- Kv7.2/7.3 ΔV1/2 [3]: 31.09 mV

Structure (SMILES): Cc1ccccc1CNC(=O)NCc1ccnc(OCC(F)(F)F)c1 [Compound 37, 1-(2-Methylbenzyl)-3-((2-(2,2,2-trifluoroethoxy)pyridin-4-yl)methyl)urea]
- Kv7.4 selectivity criteria [1]: A (Selective compounds showed Kv7.4 and/or Kv7.3/7.5 ΔV1/2 equal to or lower than 15 mV (letter A in table 3))
- Kv7.3/7.5 selectivity criteria [2]: A (Selective compounds showed Kv7.4 and/or Kv7.3/7.5 ΔV1/2 equal to or lower than 15 mV (letter A in table 3))
- pEC50 [3]: 6.09
- Kv7.2/7.3 ΔV1/2 [3]: 19.56 mV
